The results in this text go back to patent US20250382322A1, “DIAGNOSTICS FOR DETECTING ECTO-5'-NUCLEOTIDASE (CD73)” (EBERHARD KARLS UNIVERSITÄT TÜBINGEN, priority 2022, published 2025).

Assay [1] addresses T1, human NTPDase2 (Homo sapiens, UniProt Q9Y5L3).
T1 sequence (Q9Y5L3 1-495): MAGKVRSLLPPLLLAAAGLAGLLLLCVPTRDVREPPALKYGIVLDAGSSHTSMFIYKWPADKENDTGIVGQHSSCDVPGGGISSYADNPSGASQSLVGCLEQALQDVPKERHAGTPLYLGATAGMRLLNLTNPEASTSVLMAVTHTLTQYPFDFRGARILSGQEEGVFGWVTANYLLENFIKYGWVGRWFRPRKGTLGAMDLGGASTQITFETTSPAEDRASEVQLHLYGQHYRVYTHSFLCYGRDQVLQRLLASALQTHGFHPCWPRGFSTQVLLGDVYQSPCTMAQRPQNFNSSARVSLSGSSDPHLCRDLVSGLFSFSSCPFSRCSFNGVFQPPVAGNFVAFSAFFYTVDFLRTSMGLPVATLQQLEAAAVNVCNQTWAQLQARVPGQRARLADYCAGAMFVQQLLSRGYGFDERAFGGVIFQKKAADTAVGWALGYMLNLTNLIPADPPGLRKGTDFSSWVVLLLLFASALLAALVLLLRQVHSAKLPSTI
The assay can be described thus: Capillary electrophoresis assay for human NTPDase2. It counts as biochemical. The note with it: ATP (100 μM) as substrate. How it is done: (§1) Inhibitory activity of the CD73 inhibitors 2 and 20 at human NTPDases 1, 2, 3, and 8 was investigated using ATP (100 μM) as a substrate according to previously published procedures.^24 ATP and 2 were co-incubated with recombinantly expressed human NTPDases at 37° C. for 30 min, and the enzymatic reaction was terminated by heating at 90° C. for 10 min. The amount of enzyme preparation was adjusted to ensure 10-20% of substrate conversion. The formed products were separated by capillary electrophoresis (CE) and individually quantitated by diode array detection (DAD) at a wavelength of 260 nm. For inhibition analysis, at least three independent experiments were performed each in triplicate. The inhibition of the enzyme activity was calculated in relation to the positive control without inhibitor and plotted by GraphPad Prism 8 software (GraphPad software, San Diego, CA, USA) (for results see Table 2 and Table 3).
(§2) Test compounds were investigated at a concentration of 50 μM, and 100 μM ATP substrate according to published procedures.^24 Recombinantly expressed human NTPDases were employed. The amount of enzyme preparation was adjusted to ensure 10-20% of substrate conversion. […] The inhibition of the enzyme activity was calculated in relation to the positive control without inhibitor and plotted in GraphPad Prism 8 software (GraphPad software, San Diego, CA, USA). […]

The target in assay [2] is T2, human NTPDase3 (Homo sapiens, UniProt O75355).
T2 sequence (O75355 1-529): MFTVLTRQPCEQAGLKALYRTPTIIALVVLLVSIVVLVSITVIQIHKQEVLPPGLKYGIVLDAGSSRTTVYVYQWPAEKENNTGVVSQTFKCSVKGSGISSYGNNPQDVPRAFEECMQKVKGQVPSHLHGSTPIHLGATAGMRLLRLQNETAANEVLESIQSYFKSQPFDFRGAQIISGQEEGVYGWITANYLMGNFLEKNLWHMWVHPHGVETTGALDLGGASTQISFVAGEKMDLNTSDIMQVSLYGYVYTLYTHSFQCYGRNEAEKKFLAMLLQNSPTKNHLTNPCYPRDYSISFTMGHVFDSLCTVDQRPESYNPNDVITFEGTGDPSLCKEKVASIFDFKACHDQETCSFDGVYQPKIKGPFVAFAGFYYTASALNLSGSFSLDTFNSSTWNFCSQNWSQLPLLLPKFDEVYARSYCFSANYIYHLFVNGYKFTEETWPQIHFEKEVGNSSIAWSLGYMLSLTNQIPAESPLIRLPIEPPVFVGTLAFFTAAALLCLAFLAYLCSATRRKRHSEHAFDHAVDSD
The assay can be described thus: Capillary electrophoresis assay for human NTPDase3. It counts as biochemical. The note with it: ATP (100 μM) as substrate. As to the method: as §1, §2

What is called IC50 is the concentration that inhibits the measured activity by half. A high value points to lower potency. Consider `CCCN(Cc1ccc(-c2cn(CCF)nn2)cc1)c1nc(Cl)nc2c1ncn2[C@@H]1O[C@H](COP(=O)(O)CP(=O)(O)O)C(O)C1O` (stereo partly shown) [Compound 2], for which the IC50 in assay [1] and in assay [2] was greater than 50 µM in each case.

On to `O=C(NCCCCCCNC(=O)c1ccc2c(c1)C1(OC2=O)c2ccc(O)cc2Oc2cc(O)ccc21)c1ccc(CNc2nc(Cl)nc3c2ncn3[C@@H]2O[C@H](COP(=O)(O)CP(=O)(O)O)[C@@H](O)[C@H]2O)cc1` [Compound 20, (((((2R,3S,4R,5R)-5-(2-chloro-6-((4-((6-(3′,6′-dihydroxy-3-oxo-3H-spiro[isobenzofuran-1,9′-xanthene]-6-carboxamido)-hexyl)carbamoyl)benzyl)amino)-9H-purin-9-yl)-3,4-dihydroxytetrahydrofuran-2-yl)methoxy)(hydroxy)phosphoryl)methyl)phosphonic acid], for which the IC50 in assay [1] is less than 50 µM; in assay [2], 27.7 µM.
